{"source": "paper PMC5317004", "about": "(Scientific Reports, 2017)", "key": {"[1]": {"system": "T1, homomeric GluClβR", "T1 construct": "homomeric receptors assembled from the full-length C. elegans GluClβ subunit; expressed in transfected cells; host or cells: CHO-K1 cells, transient transfection, pcDNA3.1", "assay": "Effect of IVM on Glu-elicited currents of homomeric GluClβ receptors in CHO cells (whole-cell patch clamp)", "type": "cell-based, C. elegans", "conditions": "pre-application of 2 μM IVM for 10 seconds, 100 mM Glu, +60 mV, four cells", "procedure": "Figure 9 Effect of IVM on homomeric GluClβ receptors. (A) Representative current traces obtained by the indicated application protocol. Glu (100 mM) was applied for either 350 ms to obtain peak IP0 at −60 mV, or 600 ms to obtain peaks IP1, IP2 and IP3 at +60 mV. Note that the responses at both membrane voltages, −60 and +60 mV, start to desensitize appreciably before the end of Glu application. IVM (2 μM) was applied for 10 seconds. Asterisk indicates a 25-sec-long wash between the second and third Glu applications. (B) Current-voltage (I/V) relations obtained in a different cell than in A upon the application of Glu (100 mM) over a voltage ramp lasting 200 ms. […] Current ratios were extracted from experiments performed as shown in (A). Mean ± SEM of four cells are presented. Paired, two-tailed Student’s t-tests indicate that **0.001 < P < 0.01 and ***P < 0.0002.\nSupplementary Information\nTrapping of ivermectin by a pentameric ligand-gated ion channel upon open-to-cl ose d i someri zati on N. Degani-Katzav, M. Klein, M. Har-Even, R. Gortler, R. Tobi and Y. Paas*\nSupplementary Materials and Methods […]\nThe electrode resistance was 6-10 MΩ when filled with the pipette solution. […] The currents w ere measured with an Axopatch 200B patch-clamp amplifier (Molecular Devices, Sunnyvale, CA) and a Digidata 1440A interface (Molecular Devices). […]"}, "[2]": {"system": "α7-nAChR", "conditions": "cited from earlier work"}, "[3]": {"system": "chimeric α7-GluClβR", "assay": "IVM added after activation by ACh: kinetics and extent of current decline (whole-cell patch clamp)", "type": "cell-based, chick nAChR α7 / C. elegans GluClβ", "procedure": "Following a further wash (for a minute), the same cell was challenged again with a 5-μM-IVM solution (in 0.01% DMSO; red bar, arrow and trace). Recordings were performed at −60 mV. (B) Time constant of current decline (τd). Values of τd were determined by exponential fits to the declining phase of the currents using Eq. 3. […] Error bars correspond to SEM of N = 6 and N = 5 cells for recordings at −60 mV and −20 mV, respectively. Paired, two-tailed Student’s t-tests indicate that for not significant (“ns”) P > 0.3, and ** 0.001 < P < 0.005.\nFigure 8 The inhibition of ACh-elicited currents by addition of IVM is irreversible. […] (B) Representative currents for the same experiment as in A, but with the exception of IVM (0.5 μM) addition after the ACh-elicited current reached to its peak (IP1). Inset, magnification of the indicated segment of the current trace. In both panels A and B, black bars above the current traces indicate ACh or IVM applications. […] Error bars correspond to SEM. Unpaired, two-tailed Student’s t-tests indicate *** P < 0.0001.\nThe declining phase of the currents was fitted with an exponential time course to give the time constant of current decline by using equation 3, […]\nI is the current, IP is the peak of the current, IS is the steady state current, t is the time, and τ is the time constant of current decline. […]\nSupplementary Materials and Methods\nThe structural mo del of the chi meric α7-GluClβR was built based on th e methodologies published previously1,2, and the sequence of the chimeric subunit is presented in […]\nDNA construct and preparation of cells for electrophysiological experiments The cDNA encoding the α7-GluClβ chimeric subunit was generated as described previously3, and was cloned into a pcDNA3.1 vector.\nChinese hamster ovary cells (CHO-K1, ATCC via Biological Industries Israel, Beit Haemek Ltd.) were cultured as performed previously2 in Dulbecco 's Modified E agle Med iu m (DMEM) containing 10% fetal calf serum (Biological Industries Israel Beit Haemek Ltd.), 2 mM glutamax, 100 Units/ml penicillin G and 100 μg/ml streptomycin, and grown in 5% CO2 at 37°C under 90-95% hu midity . CHO cells were seeded on glass coverslips (13-mm diameter) placed in a 24-multiwell plate. For the expression of the α7-GluClβR, cells were transiently transfected with the pcDNA3.1 plasmid containing the receptor’s ORF (200-600 ng per well) using transit-LT1 transfection reagent (Mirus, USA), according to the manufacturer’s protocol. pIRES-CD8 plas mid (200 ng per well) was also added to enable visualization of the ex pressing cells by beads coated with anti-CD8 antibodies (Invitrogen). For the expression of GluClβ ho mo mers, we used the pcDNA3.1 plas mid containing the GluClβ-subunit ORF (600-1000 ng per well), pIRES-CD8 plas mid (200 ng per well) and th e X-tremeGENE HP DNA Transfection Reagent (Roche Life Science). Recordings were performed 48-72 hours following transfection.\nWhole-cell patch clamp recordings\nRecordings were performed in the aforementioned CHO cells, as previously described1,2. Whole-cell patch clamp experiments were performed with normal external solution (NES) contained (in millimolar): 140 NaCl, 2.8 KCl, 2 CaCl2, 2 MgCl2, 10 glucose and 10 HEPES, adjusted to pH 7.35 with NaOH (310 mOsM). The pipette solution contained […]\n(in millimolar): 130 KCl, 4 MgCl2, 4 Na2ATP, 1 EGTA and 10 HEPES, adjusted to pH 7.35 with KOH (290 mOsM). The osmolarity of these solutions was maintained by adding sucrose.\nThe electrode resistance was 6-10 MΩ when filled with the pipette solution. External solutions were applied onto the cell by using the VC-77SP fast-step system (Warner Instruments, CT, USA) combined with N2 pressure of 3-4 psi to produce laminar flow of the external solution onto the patched cell. All measurements were performed at 25 °C. The currents w ere measured with an Axopatch 200B patch-clamp amplifier (Molecular Devices, Sunnyvale, CA) and a Digidata 1440A interface (Molecular Devices). […]"}, "[4]": {"conditions": "30 μM ACh + 0.5 μM IVM, 9.6 sec, N = 10"}}, "data": [{"smiles": "CC[C@H](C)[C@H]1O[C@]2(CC[C@@H]1C)C[C@@H]1C[C@@H](C/C=C(\\C)[C@@H](O[C@H]3C[C@H](OC)[C@@H](O[C@H]4C[C@H](OC)[C@@H](O)[C@H](C)O4)[C@H](C)O3)[C@@H](C)/C=C/C=C3\\CO[C@@H]4[C@H](O)C(C)=C[C@@H](C(=O)O1)[C@]34O)O2", "note": "[IVM, Ivermectin]", "values": [{"measurement": "Glu response remaining after IVM pre-application (IP2/IP1 ratio)", "setting": "[1]", "result": "~67", "unit": "%"}, {"measurement": "decrease of the ACh-EC50 by IVM", "setting": "[2]", "result": 20, "unit": "fold"}, {"measurement": "reduction of time constant of current decline (τd)", "setting": "[3]; 5 μM IVM added after peak of 350 μM ACh response, −60 mV and −20 mV", "result": "more than two folds"}, {"measurement": "τd1 amplitude percentage (%A)", "setting": "[3]; 30 μM ACh + 0.5 μM IVM", "result": "55 ± 10", "unit": "%"}, {"measurement": "τd2 amplitude percentage (%A)", "setting": "[3]; 30 μM ACh + 0.5 μM IVM", "result": "45 ± 10", "unit": "%"}, {"measurement": "τd1, time constant of current decline", "setting": "[3]; [4]", "result": "3370 ± 318", "unit": "ms"}, {"measurement": "τd2, time constant of current decline", "setting": "[3]; [4]", "result": "987 ± 120", "unit": "ms"}, {"measurement": "time between the start of application and the onset of effect", "setting": "[3]; six experiments as in Fig. 5A, 350 μM ACh, 5 μM IVM", "result": "132 ± 24", "unit": "milliseconds"}]}]}
